Reference: US20180303830A1, “CANCERS EXPRESSING CCR5 AND METHODS OF TREATMENT OF SAME” (THOMAS JEFFERSON UNIVERSITY, priority 2015, published 2018)

Key:
SUM159 cells [1] = test: Phospho-γH2AX Western-blot of doxorubicin induced DNA damage in SUM159 cells; assay type: cell-based, human; details: for doxorubicin induced phospho-γH2AX (DNA damage): 100 μM, SUM159 cells, doxorubicin treatment; for effect on CCR5-mediated DNA repair (phospho-γH2AX western-blot and DNA repair reporter assay): breast cancer cells overexpressing CCR5, doxorubicin and γ-radiation induced DNA damage
Description: The chemokine receptor CCR5 is normally expressed on the surface of immune cells and served as HIV co-receptor. […] Compared with CCR5− cells, the CCR5+ cells were enriched with DNA damage/repair gene signature. […] Based on the existing theory that the resistance of cancer cells to the chemotherapy and radiation therapy caused by the existence of cancer stem cells, the inhibition of CCR5 by CCR5 antagonists will sensitize the response of breast cancer cells to chemotherapy and radiation therapy, therefore increase the efficiency of DNA damage inducing chemotherapy treatment for CCR5 expressing cancers.
FIG. 9. […] FIG. 9A The CCR5 stable-transfected and vector-control SUM159 cells were illuminated with 6.5 Gy of γ-radiation. The samples were collected at 0.5, 3 and 24 hours after y-radiation. The recruitment of phosphor-γH2AX and the reduction of abundance were faster in CCR5-transfected cells than vector-control cells. FIG. 9B The CCR5 stable-transfected and vector-control SUM159 cells were treated with doxorubicin. […] FIG. 9C CCR5 antagonist increased DNA damage in SUM159 cells. SUM159 cells treated with CCR5 antagonist, Maraviroc and Vicriviroc, both at 100 μM. DNA damage was induced by doxorubicin treatment. There are more doxorubicin induced phospho-γH2AX in Marviroc and Vicriviroc treated groups.

SUM159 cells [2] = test: Lung metastasis of SUM159 cells in SCID mice, photon flux (IVIS); assay type: in vivo
Description: The CCR5 antagonist, Maraviroc, was previously approved by the US Food and Drug Administration (FDA) for the use in treatment-nave adult […] with CCR5-trophic HIV. In order to determine the role endogenous CCR5 within SUM159 cells in lung metastasis, cells were introduced into SCID immune deficient mice, and tumor volume characterized using the IVIS system. […] (p<0.0001).
FIG. 7. Endogenous CCR5 promotes lung metastases in mice. FIG. 7A Representative timed photon emission of mice injected with SUM159 cells treated with either control or Maraviroc (at 14 mg/kg mouse body, time as shown in weeks). FIG. 7B Mean±SEM of photon flux for 6 animals in control group and 7 animals in maraviroc treatment group shown in 5 weeks. Maraviroc treatment reduces mean lung tumor volume by 98% which detected by photon flux ((3.01±1.16)×10^7 vs (1.05±0.44)×10^8, p=0.063 with Mann-Whitney Test).

[3] = tested on: basal-like breast cancer model; test: In vivo metastasis in a basal-like breast cancer model; design: species or system mice
Description: Chemokine CCL5 and its receptor CCR5 play a significant role in cancer progression and metastasis. Metastasis is the primary cause of death in patients with breast cancer. No effective treatments currently exist that are directed specifically to the metastatic process. There is evidence that the CCR5 receptor is expressed in a subset of human breast cancers. Importantly, embodiments disclosed herein support that CCR5 inhibitors previously developed and FDA approved for treatment of HIV, can effectively block breast cancer metastasis in preclinical models, thereby providing for an effective treatment of said metastatic breast cancers. The repurposing of drugs for alternative use in cancer metastasis, drugs that were previously approved by the FDA, may provide a more rapid solution for this deadly disease. Indeed, CCR5 inhibition by the FDA approved CCR5 antagonists Maraviroc and Vicriviroc reduced in vivo metastasis in a basal-like breast cancer model.
Indeed, in studies described herein, CCR5 is sufficient to induce invasiveness of breast cancer cells into matrigel, and metastasis to the lungs of mice. Accordingly, two distinct CCR5 inhibitors, maraviroc and vicriviroc, blocked CCR5 signaling and thereby block migration, invasion and metastasis in mice. […] The dose of CCR5 inhibitor used in these mouse models was the same as the dose used in patients for HIV.

FC-IBC-02 cells = test: Boyden chamber migration and invasion assay in FC-IBC-02 cells; assay type: cell-based, human; details: 100 μM, 48 hrs, compared to control; for invasion of FC-IBC-02 cells: matrigel-coated membrane; for migration of FC-IBC-02 cells: noncoated membrane
Experimental: The effects of CCR5 antagonists (Maraviroc and Vicriviroc) on cell migration and invasion in vitro were examined using matrigel-coated Boyden chamber assay in FC-IBC-02 cells, which are triple-negative, basal-like, cancer stem cell phenotype, and rapidly developed primary tumors and metastasis in vivo. Cells were treated by Maraviroc and Vicriviroc at 100 μM and support the conclusion that CCR5 is highly expressed in basal-like human IBC cells.
In FIG. 3, CCR5 antagonists Maraviroc and Vicriviroc suppress the migration and invasion of FC-IBC-02 cells. FIGS. 3A and 3B depict control and CCR5 antagonists treated cells at equal number were seeded onto the noncoated membrane (migration) and matrigel-coated membrane (invasion). After incubating 48 hrs. the cells crossed the membrane were stained with 0.05% crystal violet. FIGS. 3C and 3D, quantitation of 3A and 3B compared to controls was indicated.

| Compound | doxorubicin induced phospho-γH2AX (DNA damage) (SUM159 cells [1]) | effect on CCR5-mediated DNA repair (phospho-γH2AX western-blot and DNA repair reporter assay) (SUM159 cells [1]) | photon flux, Mean±SEM (SUM159 cells [2]; 14 mg/kg, 5 weeks, 7 animals, p=0.063 Mann-Whitney vs control) | reduction of mean lung tumor volume detected by photon flux (SUM159 cells [2]; 14 mg/kg, 5 weeks, vs control) | increase in breast cancer lung metastases (photon flux) in the control group compared to the treated group (SUM159 cells [2]; SUM159 cells in SCID mice, administered orally) | percentage of mice with detectable lung metastases (SUM159 cells [2]; SUM159 cells in SCID mice, administered orally, p<0.0001) | in vivo metastasis [3] | invasion of FC-IBC-02 cells (FC-IBC-02 cells) | migration of FC-IBC-02 cells (FC-IBC-02 cells) |
| --- | --- | --- | --- | --- | --- | --- | --- | --- | --- |
| Cc1nnc(C(C)C)n1[C@@H]1C[C@H]2CC[C@@H](C1)N2CC[C@H](NC(=O)C1CCC(F)(F)CC1)c1ccccc1 [Maraviroc, 4,4-difluoro-N-{(1S)-3-[3-(3-isopropyl-5-methyl-4H-1,2,4-triazol-4-yl)-8-azabicyclo[3.2.1]oct-8-yl]-1-phenylpropyl}cyclohexanecarboxamide] | more | abolished these effects | (3.01±1.16)×10^7 | 98% | 15 fold | significantly reduced | reduced | suppress | suppress |
| COCC(c1ccc(C(F)(F)F)cc1)N1CCN(C2(C)CCN(C(=O)c3c(C)ncnc3C)CC2)C[C@@H]1C (stereo partly drawn) [Vicriviroc, 5-({4-[(3S)-4-{2-methoxy-1-[4-(trifluoromethyl)phenyl]ethyl}-3-methylpiperazin-1-yl]-4-methylpiperidin-1-yl}carbonyl)-4,6-dimethylpyrimidine] | more | abolished these effects |  |  |  |  | reduced | suppress | suppress |
